{"source": "patent US10912781B2", "about": "“Pharmaceutical composition comprising licarbazepine acetate” (BIAL-Portela & C.A., S.A., priority 2007, dated 2021)", "test": "Bulk density / apparent volume (Ph. Eur. edn. 6, test 2.9.15 or USP 31 <616>)", "type": "physicochemical", "settings": "API prior to granulation / preparation prior to forming the final formulation", "experimental": "Suitable methods for determining the bulk density of the preparation will be well known to the skilled chemist, for example, the European Pharmacopeia edition 6, Test 2.9.15 “apparent volume”, pages 285-286, EDQM, 2007, or USP 31, vol. 1 test <616> page 231-232, The United States Pharmacopeia Convention, 2008. The apparent density of a compressed formulation is measured in terms of mass and volume of the formulation and is well within the capabilities of the skilled person.\nA suitable method is described below: • Apparatus • settling apparatus capable of producing in 1 minute 250±15 taps from a height of 3±0.2 mm. The support for the graduated cylinder with its holder, has a mass of 450±5 g • a 250 ml graduated cylinder (2 ml intervals) with a mass of 220±40 g • Method • Into a dry cylinder, introduce without compacting, 100.0 g […] of the test substance. Secure the cylinder in its holder. Read the unsettled apparent volume (V0) to the nearest milliliter. Carry out 10, 500 and 1250 taps and read the corresponding volumes V10, V500, V1250, to the nearest milliliter. If the difference between V500 and V1250 is greater than 2 ml, carry out another 1250 taps. […]\nBulk/apparent density may then be determined in g/ml using the following formula: m/V0 where m is the mass in grams and V0 the unsettled apparent volume"}
{"substance": "licarbazepine acetate", "values": [{"measurement": "Bulk density", "result": "less than 0.3 g/mL"}, {"measurement": "Bulk density", "setting": "listed as API", "result": "about 0.28 g/mL"}]}
